According to US8815936B2 (Nad Life Pty Ltd, priority 2008, dated 2014):
One block for each compound: values may come before it.

How the values were obtained:
[1] = test system: primary human foetal astrocytes; assay: Intracellular NAD+ levels in cultured human foetal astrocytes (NAD(H) microcycling assay); type: cell-based; conditions: for abrogation of resveratrol-induced increase of intracellular NAD+ by de novo pathway inhibitor: inhibitor 1 mM + resveratrol 100 μM; for reversal of NAD+ depletion compared to 1-MT treatment alone: supplementation together with 1-MT
[2] = test system: human primary Keratinocytes; assay: Intracellular NAD 24 hr after UVB exposure in human skin cells; type: cell-based; conditions: single therapy 24 hrs after 15 min UVB; NAD levels / LDH activity; N=3
Protocol: Human skin cells (keratinocytes) were grown at a density of 5×10^6 in PERMANOX® chamber-slides (NUNC) for 2 weeks. This method is commonly used in the industry and is well known to those skilled in the art. Accordingly, there is no need to detail the method utilised in this specification.
Cells were either left unexposed or exposed to 15 min UVB (˜200 mJcm^−2).
Cells were left to incubate for 24 hrs before analysis of intracellular NAD (FIG. 19a-d to FIG. 21) and extracellular LDH (FIG. 21). FIGS. 19a-d show the intracellular NAD concentrations+/−UV exposure, +/−supplementation. FIGS. 19e-h show supernatant LDH activity+/−UVE exposure, +/−supplementation.

[3] = test system: Human neuroblastoma cells (SK-N-SH); assay: Intracellular NAD+ in human neuroblastoma cells treated with H2O2, iron and ascorbic acid; type: cell-based; conditions: for depletion of intracellular NAD+ levels: pre-treatment with 2, 20 and 200 μM, 100 μM H2O2
[4] = test system: human primary Keratinocytes; assay: Residual DNA damage (dsDNA breaks) after UVB, Keratinocytes; type: cell-based; conditions: for amount of dsDNA breaks: EC100 or EC100 equivalent combinations; for EC100: mono therapy, DNA repair
[5] = test system: human primary Fibroblasts; assay: Residual DNA damage (dsDNA breaks) after UVB, Fibroblasts; type: cell-based; conditions: for amount of dsDNA breaks: EC100 or EC100 equivalent combinations; for EC100: mono therapy, DNA repair
[6] = test system: primary human foetal astrocytes; assay: H2O2-mediated intracellular NAD+ depletion in human foetal astrocytes; type: cell-based; conditions: for intracellular NAD+ after oxidative (H2O2) insult: 24 hour pre-treatment (Melatonin 5 μM, Clioquinol 10 μM, resveratrol 100 μM), then 100 μM H2O2 15 min
[7] = test system: nicotinamide mononucleotide adenylyl transferase (NMNAT); assay: NMNAT activity in whole cell homogenates of human brain astrocytes; type: biochemical
[8] = target: human recombinant NMNAT (hr-NMNAT1) (Homo sapiens, UniProt Q9HAN9); conditions: resveratrol 50, 100 and 200 μM
Sequence of human recombinant NMNAT (hr-NMNAT1) (Q9HAN9 whole entry): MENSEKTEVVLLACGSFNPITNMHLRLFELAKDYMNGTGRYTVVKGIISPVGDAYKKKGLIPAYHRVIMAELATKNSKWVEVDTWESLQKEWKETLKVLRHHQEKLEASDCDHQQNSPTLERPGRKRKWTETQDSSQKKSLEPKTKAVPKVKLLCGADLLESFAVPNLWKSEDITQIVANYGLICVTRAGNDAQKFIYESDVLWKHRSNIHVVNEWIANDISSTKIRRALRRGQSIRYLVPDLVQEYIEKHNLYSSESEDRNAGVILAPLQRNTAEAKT

[9] = test system: primary human foetal astrocytes; conditions: exposure to 10-100 μM H2O2 for 20 min
[10] = test system: PARP-1; conditions: exposure to 10-100 μM H2O2 for 20 min

Compound: O=C(O)c1ccccc1C(=O)O [PA]
abrogation of resveratrol-induced increase of intracellular NAD+ by de novo pathway inhibitor ([1]; 24 hour): Neither inhibitor was able to abrogate the resveratrol effect

Compound: N[C@@H](Cc1c[nH]c2ccccc12)C(=O)O [L-tryptophan]
reversal of NAD+ depletion compared to 1-MT treatment alone ([1]; 24 h): partially reversed

Compound: Oc1c(I)cc(Cl)c2cccnc12 [Clioquinol]
Minimum effective concentrations (MEC) [2]: 0.1 µM | .OH-induced NAD+ depletion ([3]; Clioquinol 1 μM-100 μM, dose dependant, 100 μM H2O2, 10 μM iron, 10 μM ascorbic acid): effectively reduced | amount of dsDNA breaks ([4]; 24 hr after UVB exposure): significantly reduced | EC100 [4]: 0.1 µM | amount of dsDNA breaks ([5]; 24 hr after UVB exposure): significantly reduced | EC100 [5]: 0.1 µM | intracellular NAD+ after oxidative (H2O2) insult [6]: significantly reduced NAD^+ depletion

Compound: NC(=O)c1ccccn1 [Picolinamide]
amount of dsDNA breaks ([4]; 24 hr after UVB exposure): significantly reduced | EC100 [4]: 100 µM | amount of dsDNA breaks ([5]; 24 hr after UVB exposure): significantly reduced | EC100 [5]: 100 µM

Compound: Vitamin E
depletion of intracellular NAD+ levels [3]: inhibited

decrease of Km [8]: approximately 3 times
Compound: Oc1ccc(/C=C/c2cc(O)cc(O)c2)cc1 [Resveratrol, 3,5,4′-trihydroxystilbene]
Minimum effective concentrations (MEC) [2]: 50 µM | amount of dsDNA breaks ([4]; 24 hr after UVB exposure): significantly reduced | EC100 [4]: 100 µM | amount of dsDNA breaks ([5]; 24 hr after UVB exposure): significantly reduced | EC100 [5]: 100 µM | intracellular NAD+ versus control levels ([1]; resveratrol 100 μM, 24 hour): significantly increased | increase in intracellular NAD+ concentration ([1]; resveratrol 100 μM, 24 hour, cells not subject to oxidative stress): approximately 75% | increase of NMNAT activity compared to control ([7]; 200 μM resveratrol, whole cell homogenates): 67% | increase of NMNAT activity in the whole cell extract ([7]; presence of resveratrol (FIG. 16)): approximately 70% | intracellular NAD+ after oxidative (H2O2) insult [6]: did not show a significant change | apparent antioxidant activity (H2O2-mediated NAD+ depletion) ([6]; resveratrol 100 μM 24 hour, then H2O2 20 minutes): small reduction in NAD^+ depletion

Compound: O=c1c(O)c(-c2ccc(O)c(O)c2)oc2cc(O)cc(O)c12 [Quercetin]
NAD+ levels after H2O2 exposure ([6]; quercetin (50 μM) overnight, then 10-100 μM H2O2 for 20 min): significantly preserved

Compound: OO [H2O2, hydrogen peroxide]
LDH activity (a measure of cell death) [9]: significantly increased | PARP-1 activity [10]: significantly increased | Intracellular NAD+ ([6]; exposure to 10-100 μM H2O2 for 20 min): significantly decreased

Compound: O=C(O)c1cccnc1 [nicotinic acid, Nicotinic acid]
reversal of NAD+ depletion compared to 1-MT treatment alone ([1]; 24 h): partially reversed

Compound: COc1ccc2[nH]cc(CCNC(C)=O)c2c1 [Melatonin]
depletion of intracellular NAD+ levels [3]: inhibited | reduction in damaged DNA ([4]; 24 hr after UVB exposure): ~30% | amount of dsDNA breaks ([4]; 24 hr after UVB exposure): significantly reduced | EC100 [4]: 100 µM | reduction in damaged DNA ([5]; 24 hr after UVB exposure): ~40% | amount of dsDNA breaks ([5]; 24 hr after UVB exposure): significantly reduced | EC100 [5]: 100 µM | intracellular NAD+ after oxidative (H2O2) insult [6]: significantly reduced NAD^+ depletion

Compound: O=C(OC[C@H]1O[C@@H](OC(=O)c2cc(O)c(O)c(OC(=O)c3cc(O)c(O)c(O)c3)c2)[C@H](OC(=O)c2cc(O)c(O)c(OC(=O)c3cc(O)c(O)c(O)c3)c2)[C@@H](OC(=O)c2cc(O)c(O)c(OC(=O)c3cc(O)c(O)c(O)c3)c2)[C@@H]1OC(=O)c1cc(O)c(O)c(OC(=O)c2cc(O)c(O)c(O)c2)c1)c1cc(O)c(O)c(OC(=O)c2cc(O)c(O)c(O)c2)c1 [tannic acid]
NAD+ levels, tannic acid alone ([1]; 100 μM, 24 hour incubation): did not significantly reduce | effect of resveratrol on intracellular NAD+ levels in presence of tannic acid ([1]; tannic acid 100 μM + resveratrol 100 μM, 24 hours): completely abrogated

Compound: Cn1cc(C[C@H](N)C(=O)O)c2ccccc21 [1-MT, 1-methyl tryptophan]
intracellular NAD+ levels ([1]; 1-MT 1 mM, 24 h): significant decrease | abrogation of resveratrol-induced increase of intracellular NAD+ by de novo pathway inhibitor ([1]; 24 hour): Neither inhibitor was able to abrogate the resveratrol effect
